Assays:
Staphylococcus aureus [1] = experiment: Antimicrobial activity against Staphylococcus aureus ATCC 6538 after 18 hrs by twofold serial broth dilution method; assay type: functional; settings: ATCC 6538, 18 h
Staphylococcus aureus [2] = experiment: Antimicrobial activity against Staphylococcus aureus […] after 18 hrs by twofold serial broth dilution method; assay type: functional
[3] = test system: Staphylococcus epidermidis; experiment: Antimicrobial activity against Staphylococcus epidermidis ATCC 12228 after 18 hrs by twofold serial broth dilution method; assay type: functional; settings: ATCC 12228, 18 h
[4] = test system: Staphylococcus epidermidis; experiment: Antimicrobial activity against Staphylococcus epidermidis ATCC 35984 after 18 hrs by twofold serial broth dilution method; assay type: functional; settings: ATCC 35984, 18 h
Escherichia coli [5] = experiment: Antimicrobial activity against Escherichia coli ATCC 25922 after 18 hrs by twofold serial broth dilution method; assay type: functional; settings: ATCC 25922, 18 h
Escherichia coli [6] = experiment: Antimicrobial activity against Escherichia coli NCTC 8196 after 18 hrs by twofold serial broth dilution method; assay type: functional; settings: NCTC 8196, 18 h
Pseudomonas aeruginosa [7] = experiment: Antimicrobial activity against Pseudomonas aeruginosa ATCC 15442 after 18 hrs by twofold serial broth dilution method; assay type: functional; settings: ATCC 15442, 18 h
Pseudomonas aeruginosa [8] = experiment: Antimicrobial activity against Pseudomonas aeruginosa NCTC 6749 after 18 hrs by twofold serial broth dilution method; assay type: functional; settings: NCTC 6749, 18 h
Pseudomonas aeruginosa [9] = experiment: Antimicrobial activity against Pseudomonas aeruginosa ATCC 27853 after 18 hrs by twofold serial broth dilution method; assay type: functional; settings: ATCC 27853, 18 h
Bacillus anthracis = experiment: Antimicrobial activity against Bacillus anthracis 34F2 after 18 hrs by twofold serial broth dilution method; assay type: functional; settings: 34F2, 18 h
Staphylococcus aureus [10] = experiment: Bactericidal activity against Staphylococcus aureus ATCC 25923 after 24 hrs; assay type: functional; settings: ATCC 25923, 24 h, read-out: MBC99.9
Staphylococcus aureus [11] = experiment: Bactericidal activity against Staphylococcus aureus […] after 24 hrs; assay type: functional; settings: read-out: MBC99.9
[12] = test system: Staphylococcus epidermidis; experiment: Bactericidal activity against Staphylococcus epidermidis ATCC 12228 after 24 hrs; assay type: functional; settings: ATCC 12228, 24 h, read-out: MBC99.9
[13] = test system: Staphylococcus epidermidis; experiment: Bactericidal activity against Staphylococcus epidermidis ATCC 35984 after 24 hrs; assay type: functional; settings: ATCC 35984, 24 h, read-out: MBC99.9
Escherichia coli [14] = experiment: Bactericidal activity against Escherichia coli NCTC 8196 after 24 hrs; assay type: functional; settings: NCTC 8196, 24 h, read-out: MBC99.9
Pseudomonas aeruginosa [15] = experiment: Bactericidal activity against Pseudomonas aeruginosa NCTC 6749 after 24 hrs; assay type: functional; settings: NCTC 6749, 24 h, read-out: MBC99.9
Pseudomonas aeruginosa [16] = experiment: Bactericidal activity against Pseudomonas aeruginosa ATCC 27853 after 24 hrs; assay type: functional; settings: ATCC 27853, 24 h, read-out: MBC99.9
[17] = test system: Staphylococcus epidermidis; experiment: Antimicrobial activity against methicillin-resistant Staphylococcus epidermidis isolate 403/10 after 18 hrs by twofold serial broth dilution method; assay type: functional; settings: isolate 403/10, 18 h
[18] = test system: Staphylococcus epidermidis; experiment: Antimicrobial activity against methicillin-resistant Staphylococcus epidermidis isolate 404/10 after 18 hrs by twofold serial broth dilution method; assay type: functional; settings: isolate 404/10, 18 h
[19] = test system: Staphylococcus epidermidis; experiment: Antimicrobial activity against methicillin-resistant Staphylococcus epidermidis isolate 405/10 after 18 hrs by twofold serial broth dilution method; assay type: functional; settings: isolate 405/10, 18 h
[20] = test system: Staphylococcus epidermidis; experiment: Antimicrobial activity against methicillin-resistant Staphylococcus epidermidis isolate 407/10 after 18 hrs by twofold serial broth dilution method; assay type: functional; settings: isolate 407/10, 18 h
[21] = test system: Staphylococcus epidermidis; experiment: Antimicrobial activity against methicillin-resistant Staphylococcus epidermidis isolate 409/10 after 18 hrs by twofold serial broth dilution method; assay type: functional; settings: isolate 409/10, 18 h
[22] = test system: Staphylococcus epidermidis; experiment: Antimicrobial activity against methicillin-resistant Staphylococcus epidermidis isolate 422/10 after 18 hrs by twofold serial broth dilution method; assay type: functional; settings: isolate 422/10, 18 h
[23] = test system: Staphylococcus epidermidis; experiment: Antimicrobial activity against methicillin-resistant Staphylococcus epidermidis isolate 424/10 after 18 hrs by twofold serial broth dilution method; assay type: functional; settings: isolate 424/10, 18 h
[24] = test system: Staphylococcus epidermidis; experiment: Antimicrobial activity against methicillin-resistant Staphylococcus epidermidis isolate 454/11 after 18 hrs by twofold serial broth dilution method; assay type: functional; settings: isolate 454/11, 18 h
[25] = test system: Staphylococcus epidermidis; experiment: Antimicrobial activity against methicillin-resistant Staphylococcus epidermidis isolate 455/11 after 18 hrs by twofold serial broth dilution method; assay type: functional; settings: isolate 455/11, 18 h
[26] = test system: Staphylococcus epidermidis; experiment: Antimicrobial activity against methicillin-resistant Staphylococcus epidermidis isolate 457/11 after 18 hrs by twofold serial broth dilution method; assay type: functional; settings: isolate 457/11, 18 h
[27] = test system: Staphylococcus epidermidis; experiment: Antimicrobial activity against methicillin-resistant Staphylococcus epidermidis isolate 458/11 after 18 hrs by twofold serial broth dilution method; assay type: functional; settings: isolate 458/11, 18 h
[28] = test system: Staphylococcus epidermidis; experiment: Antimicrobial activity against methicillin-resistant Staphylococcus epidermidis isolate 459/11 after 18 hrs by twofold serial broth dilution method; assay type: functional; settings: isolate 459/11, 18 h
[29] = test system: Staphylococcus epidermidis; experiment: Antimicrobial activity against methicillin-resistant Staphylococcus epidermidis isolate 460/11 after 18 hrs by twofold serial broth dilution method; assay type: functional; settings: isolate 460/11, 18 h
[30] = test system: Staphylococcus epidermidis; experiment: Antimicrobial activity against methicillin-resistant Staphylococcus epidermidis isolate 461/11 after 18 hrs by twofold serial broth dilution method; assay type: functional; settings: isolate 461/11, 18 h
[31] = test system: Staphylococcus epidermidis; experiment: Antimicrobial activity against methicillin-resistant Staphylococcus epidermidis isolate 470/11 after 18 hrs by twofold serial broth dilution method; assay type: functional; settings: isolate 470/11, 18 h
[32] = test system: Staphylococcus epidermidis; experiment: Bactericidal activity against methicillin-resistant Staphylococcus epidermidis isolate 403/10 after 24 hrs; assay type: functional; settings: isolate 403/10, 24 h, read-out: MBC99.9
[33] = test system: Staphylococcus epidermidis; experiment: Bactericidal activity against methicillin-resistant Staphylococcus epidermidis isolate 404/10 after 24 hrs; assay type: functional; settings: isolate 404/10, 24 h, read-out: MBC99.9
[34] = test system: Staphylococcus epidermidis; experiment: Bactericidal activity against methicillin-resistant Staphylococcus epidermidis isolate 407/10 after 24 hrs; assay type: functional; settings: isolate 407/10, 24 h, read-out: MBC99.9
[35] = test system: Staphylococcus epidermidis; experiment: Bactericidal activity against methicillin-resistant Staphylococcus epidermidis isolate 424/10 after 24 hrs; assay type: functional; settings: isolate 424/10, 24 h, read-out: MBC99.9
[36] = test system: Staphylococcus epidermidis; experiment: Bactericidal activity against methicillin-resistant Staphylococcus epidermidis isolate 454/11 after 24 hrs; assay type: functional; settings: isolate 454/11, 24 h, read-out: MBC99.9
[37] = test system: Staphylococcus epidermidis; experiment: Bactericidal activity against methicillin-resistant Staphylococcus epidermidis isolate 455/11 after 24 hrs; assay type: functional; settings: isolate 455/11, 24 h, read-out: MBC99.9
[38] = test system: Staphylococcus epidermidis; experiment: Bactericidal activity against methicillin-resistant Staphylococcus epidermidis isolate 458/11 after 24 hrs; assay type: functional; settings: isolate 458/11, 24 h, read-out: MBC99.9
[39] = test system: Staphylococcus epidermidis; experiment: Bactericidal activity against methicillin-resistant Staphylococcus epidermidis isolate 459/11 after 24 hrs; assay type: functional; settings: isolate 459/11, 24 h, read-out: MBC99.9
[40] = test system: Staphylococcus epidermidis; experiment: Bactericidal activity against methicillin-resistant Staphylococcus epidermidis isolate 460/11 after 24 hrs; assay type: functional; settings: isolate 460/11, 24 h, read-out: MBC99.9
[41] = test system: Staphylococcus epidermidis; experiment: Bactericidal activity against methicillin-resistant Staphylococcus epidermidis isolate 470/11 after 24 hrs; assay type: functional; settings: isolate 470/11, 24 h, read-out: MBC99.9
Bacillus subtilis = experiment: Genotoxicity in rec-negative Bacillus subtilis M45 at 2 ug/9 mm disc after 24 hrs by disc diffusion method; assay type: toxicity, organism-based

CCCCN(CCCC)C(=O)[C@H](CC)[C@H]1CC[C@H](C)[C@H]([C@@H](C)[C@H](O)[C@H](C)C(=O)[C@H](CC)[C@H]2O[C@]3(C=C[C@@H](O)[C@]4(CC[C@@](C)([C@H]5CC[C@](O)(CC)[C@H](C)O5)O4)O3)[C@H](C)C[C@@H]2C)O1
> 256 µg/mL: MIC (Escherichia coli [5]) | MIC (Escherichia coli [6]) | MIC (Pseudomonas aeruginosa [7]) | MIC (Pseudomonas aeruginosa [8]) | MIC (Pseudomonas aeruginosa [9]) | MBC (Staphylococcus aureus [11]) | MBC [12] | MBC [13] | MBC (Escherichia coli [14]) | MBC (Pseudomonas aeruginosa [15]) | MBC (Pseudomonas aeruginosa [16]) | MBC [33] | MBC [40] | MBC [41]
16 µg/mL: MIC [21] | MIC [25]
64 µg/mL: MIC (Bacillus anthracis)
128 µg/mL: MBC [36]
256 µg/mL: MBC (Staphylococcus aureus [10]) | MBC [32] | MBC [34] | MBC [35] | MBC [37] | MBC [38] | MBC [39]
30 mm: diameter of the inhibition zone (DIZ) (Bacillus subtilis)
4 µg/mL: MIC [19] | MIC [24] | MIC [26] | MIC [27] | MIC [28]
8 µg/mL: MIC (Staphylococcus aureus [1]) | MIC (Staphylococcus aureus [2]) | MIC [3] | MIC [4] | MIC [17] | MIC [18] | MIC [20] | MIC [22] | MIC [23] | MIC [29] | MIC [30] | MIC [31]

CC[C@@H](C(=O)[C@@H](C)[C@@H](O)[C@H](C)[C@@H]1O[C@@H]([C@@H](CC)C(=O)N(Cc2ccccc2)Cc2ccccc2)CC[C@@H]1C)[C@H]1O[C@]2(C=C[C@@H](O)[C@]3(CC[C@@](C)([C@H]4CC[C@](O)(CC)[C@H](C)O4)O3)O2)[C@H](C)C[C@@H]1C
> 256 µg/mL: MIC (Escherichia coli [5]) | MIC (Escherichia coli [6]) | MIC (Pseudomonas aeruginosa [7]) | MIC (Pseudomonas aeruginosa [8]) | MIC (Pseudomonas aeruginosa [9]) | MBC (Staphylococcus aureus [11]) | MBC (Escherichia coli [14]) | MBC (Pseudomonas aeruginosa [15]) | MBC (Pseudomonas aeruginosa [16]) | MBC [32] | MBC [33] | MBC [38] | MBC [40] | MBC [41]
256 µg/mL: MBC [12] | MBC [34] | MBC [35] | MBC [37] | MBC [39]
32 µg/mL: MIC (Staphylococcus aureus [2]) | MIC (Bacillus anthracis) | MIC [18] | MIC [25] | MIC [29] | MIC [30] | MIC [31]
16 µg/mL: MIC (Staphylococcus aureus [1]) | MIC [3] | MIC [17] | MIC [20] | MIC [21] | MIC [22] | MIC [23] | MIC [26] | MIC [27] | MIC [28]
8 µg/mL: MIC [4] | MIC [19] | MIC [24]
128 µg/mL: MBC (Staphylococcus aureus [10]) | MBC [13] | MBC [36]
20 mm: diameter of the inhibition zone (DIZ) (Bacillus subtilis)
